Measured values as given in the NIST ThermoML archive (doi:10.1016/j.tca.2010.12.008).

Assay: molar heat capacity at constant pressure
Settings: 101.33 kPa

CC(C)(C)P(=O)(O)C(C)(C)C [di-tert-butylphosphinic acid]
Settings	molar heat capacity at constant pressure [J/K/mol]
2.277 K, Crystal 2	0.028
2.67 K, Crystal 2	0.056
3.092 K, Crystal 2	0.169
3.71 K, Crystal 2	0.338
4.497 K, Crystal 2	0.591
5.284 K, Crystal 2	0.929
5.987 K, Crystal 2	1.352
6.633 K, Crystal 2	1.83
7.223 K, Crystal 2	2.337
7.813 K, Crystal 2	2.872
8.404 K, Crystal 2	3.548
9.078 K, Crystal 2	4.337
9.808 K, Crystal 2	5.322
10.74 K, Crystal 2	6.589
11.66 K, Crystal 2	7.941
12.56 K, Crystal 2	9.405
13.52 K, Crystal 2	10.93
14.44 K, Crystal 2	12.42
15.34 K, Crystal 2	13.94
16.24 K, Crystal 2	15.46
17.17 K, Crystal 2	17.04
18.15 K, Crystal 2	18.7
19.22 K, Crystal 2	20.47
20.32 K, Crystal 2	22.27
21.3 K, Crystal 2	23.93
22.28 K, Crystal 2	25.54
23.29 K, Crystal 2	27.17
24.3 K, Crystal 2	28.84
25.37 K, Crystal 2	30.69
26.44 K, Crystal 2	32.05
27.48 K, Crystal 2	33.54
28.6 K, Crystal 2	35.23
29.67 K, Crystal 2	36.78
30.74 K, Crystal 2	38.47
31.78 K, Crystal 2	40.07
32.82 K, Crystal 2	41.87
34.73 K, Crystal 2	45.11
35.2 K, Crystal 2	46.01
35.88 K, Crystal 2	47.28
36.58 K, Crystal 2	48.41
37.37 K, Crystal 1	47.62
38.02 K, Crystal 1	45.28
38.77 K, Crystal 1	45.25
39.59 K, Crystal 1	45.81
40.38 K, Crystal 1	46.52
41.16 K, Crystal 1	47.25
41.95 K, Crystal 1	48.01
42.74 K, Crystal 1	48.77
43.55 K, Crystal 1	49.65
44.37 K, Crystal 1	50.52
45.18 K, Crystal 1	51.33
46 K, Crystal 1	52.18
46.84 K, Crystal 1	53.05
47.66 K, Crystal 1	53.9
48.47 K, Crystal 1	54.74
49.31 K, Crystal 1	55.53
50.1 K, Crystal 1	56.32
50.97 K, Crystal 1	57.08
51.81 K, Crystal 1	57.9
52.63 K, Crystal 1	58.8
53.44 K, Crystal 1	59.56
54.29 K, Crystal 1	60.43
55.1 K, Crystal 1	61.3
55.94 K, Crystal 1	62.17
56.79 K, Crystal 1	63.08
57.66 K, Crystal 1	63.98
58.67 K, Crystal 1	65.08
59.34 K, Crystal 1	65.81
60.19 K, Crystal 1	66.74
61 K, Crystal 1	67.64
61.65 K, Crystal 1	68.31
62.63 K, Crystal 1	69.41
63.11 K, Crystal 1	69.95
63.56 K, Crystal 1	70.45
64.57 K, Crystal 1	71.58
65.27 K, Crystal 1	72.4
66 K, Crystal 1	73.16
66.9 K, Crystal 1	74.2
67.41 K, Crystal 1	74.76
67.94 K, Crystal 1	75.35
68.9 K, Crystal 1	76.37
69.57 K, Crystal 1	77.21
70.28 K, Crystal 1	77.94
70.64 K, Crystal 1	78.42
71.23 K, Crystal 1	79.24
71.62 K, Crystal 1	79.66
81.51 K, Crystal 1	92.05
82.47 K, Crystal 1	93.11
83.42 K, Crystal 1	94.18
84.38 K, Crystal 1	95.24
85.33 K, Crystal 1	96.41
86.29 K, Crystal 1	97.48
87.35 K, Crystal 1	98.65
88.31 K, Crystal 1	99.82
89.26 K, Crystal 1	100.89
90.32 K, Crystal 1	102.06
91.28 K, Crystal 1	103.23
92.34 K, Crystal 1	104.4
93.3 K, Crystal 1	105.58
94.36 K, Crystal 1	106.75
95.31 K, Crystal 1	107.81
96.27 K, Crystal 1	109.09
97.33 K, Crystal 1	110.16
98.39 K, Crystal 1	111.33
99.34 K, Crystal 1	112.39
100.41 K, Crystal 1	113.56
101.47 K, Crystal 1	114.74
102.53 K, Crystal 1	115.8
103.59 K, Crystal 1	116.97
104.55 K, Crystal 1	118.04
105.71 K, Crystal 1	119.32
106.78 K, Crystal 1	120.49
107.84 K, Crystal 1	121.56
108.9 K, Crystal 1	122.73
109.96 K, Crystal 1	123.9
111.02 K, Crystal 1	124.96
112.08 K, Crystal 1	126.24
113.14 K, Crystal 1	127.31
114.2 K, Crystal 1	128.48
115.27 K, Crystal 1	129.54
116.43 K, Crystal 1	130.61
117.5 K, Crystal 1	131.89
118.56 K, Crystal 1	133.17
119.72 K, Crystal 1	134.34
120.79 K, Crystal 1	135.3
121.95 K, Crystal 1	136.47
123.12 K, Crystal 1	137.64
124.18 K, Crystal 1	138.92
125.35 K, Crystal 1	139.99
126.52 K, Crystal 1	141.05
127.69 K, Crystal 1	142.22
128.85 K, Crystal 1	143.4
130.02 K, Crystal 1	144.57
131.19 K, Crystal 1	145.74
132.46 K, Crystal 1	147.02
133.53 K, Crystal 1	148.19
134.69 K, Crystal 1	149.04
135.75 K, Crystal 1	150.32
137.24 K, Crystal 1	151.28
138.41 K, Crystal 1	152.45
139.58 K, Crystal 1	153.52
141.06 K, Crystal 1	154.79
142.44 K, Crystal 1	156.07
143.93 K, Crystal 1	157.56
145.2 K, Crystal 1	158.74
146.69 K, Crystal 1	160.12
148.18 K, Crystal 1	161.4
149.88 K, Crystal 1	163
151.25 K, Crystal 1	164.38
152.74 K, Crystal 1	165.77
154.33 K, Crystal 1	167.04
155.61 K, Crystal 1	168.32
157.31 K, Crystal 1	169.71
158.79 K, Crystal 1	170.99
160.17 K, Crystal 1	172.37
162.09 K, Crystal 1	173.76
163.68 K, Crystal 1	175.25
164.95 K, Crystal 1	176.42
166.76 K, Crystal 1	177.81
168.24 K, Crystal 1	179.3
169.94 K, Crystal 1	180.79
171.64 K, Crystal 1	182.28
173.34 K, Crystal 1	183.77
174.83 K, Crystal 1	185.05
176.74 K, Crystal 1	186.86
182.79 K, Crystal 1	191.66
183.96 K, Crystal 1	192.72
185.13 K, Crystal 1	193.79
186.61 K, Crystal 1	195.06
188.1 K, Crystal 1	196.24
189.16 K, Crystal 1	197.3
190.75 K, Crystal 1	198.37
192.13 K, Crystal 1	199.65
193.62 K, Crystal 1	200.92
195.11 K, Crystal 1	202.2
196.49 K, Crystal 1	203.37
198.08 K, Crystal 1	204.65
199.57 K, Crystal 1	205.72
201.16 K, Crystal 1	207.1
202.65 K, Crystal 1	208.27
204.13 K, Crystal 1	209.55
205.72 K, Crystal 1	210.72
207.32 K, Crystal 1	212
209.02 K, Crystal 1	213.18
210.5 K, Crystal 1	214.45
212.31 K, Crystal 1	215.73
213.8 K, Crystal 1	217.01
215.5 K, Crystal 1	218.5
217.3 K, Crystal 1	219.78
218.89 K, Crystal 1	221.16
220.7 K, Crystal 1	222.76
222.5 K, Crystal 1	224.04
224.31 K, Crystal 1	225.53
225.9 K, Crystal 1	227.24
227.81 K, Crystal 1	228.62
229.72 K, Crystal 1	230.11
231.53 K, Crystal 1	231.82
233.23 K, Crystal 1	233.2
235.03 K, Crystal 1	234.69
236.84 K, Crystal 1	236.08
238.85 K, Crystal 1	237.57
240.66 K, Crystal 1	239.06
242.78 K, Crystal 1	240.77
244.7 K, Crystal 1	242.15
246.61 K, Crystal 1	243.75
248.52 K, Crystal 1	245.35
250.54 K, Crystal 1	247.05
252.55 K, Crystal 1	248.76
254.57 K, Crystal 1	250.25
256.59 K, Crystal 1	251.85
258.71 K, Crystal 1	253.44
260.62 K, Crystal 1	255.26
262.75 K, Crystal 1	257.07
264.98 K, Crystal 1	258.77
266.89 K, Crystal 1	260.69
269.22 K, Crystal 1	262.39
271.35 K, Crystal 1	264.63
273.37 K, Crystal 1	265.91
275.7 K, Crystal 1	267.4
277.82 K, Crystal 1	269.32
280.27 K, Crystal 1	271.45
282.18 K, Crystal 1	272.62
284.62 K, Crystal 1	274.96
286.96 K, Crystal 1	276.99
289.29 K, Crystal 1	279.01
291.63 K, Crystal 1	281.14
293.64 K, Crystal 1	283.17
295.98 K, Crystal 1	283.49
